Read-outs that look alike come from different tables or passages of the source. Starred links: 1 amine or outer side, 2 acyl side, 3 side chain; linkers in the order of their positions; H or OH if unused. Non-standard residues stand in square brackets, D forms with d. Residues, ends and D or L forms follow the SMILES beside them. Groups on a side chain read outwards from the residue. *: point of attachment. C18 diacid = O=C(O)CCCCCCCCCCCCCCCCC(=O)*; γGlu = O=C(O)[C@H](CCC(=O)[*:2])N[*:1]; AEEA = NCCOCCOCC(=O)O
How the values were obtained:
human CRF2α receptor = molecular target: T1, human CRF2α receptor (Homo sapiens, UniProt Q13324); assay: cAMP agonism at human CRF2 α receptor in TeloHEAC cells (Example 7); type: cell-based; conditions: cAMP HTRF, TeloHEAC cells stably expressing human CRF2 α
T1 construct: expressed in transfected cells; host or cells: TeloHEAC
T1 sequence (Q13324 1-411): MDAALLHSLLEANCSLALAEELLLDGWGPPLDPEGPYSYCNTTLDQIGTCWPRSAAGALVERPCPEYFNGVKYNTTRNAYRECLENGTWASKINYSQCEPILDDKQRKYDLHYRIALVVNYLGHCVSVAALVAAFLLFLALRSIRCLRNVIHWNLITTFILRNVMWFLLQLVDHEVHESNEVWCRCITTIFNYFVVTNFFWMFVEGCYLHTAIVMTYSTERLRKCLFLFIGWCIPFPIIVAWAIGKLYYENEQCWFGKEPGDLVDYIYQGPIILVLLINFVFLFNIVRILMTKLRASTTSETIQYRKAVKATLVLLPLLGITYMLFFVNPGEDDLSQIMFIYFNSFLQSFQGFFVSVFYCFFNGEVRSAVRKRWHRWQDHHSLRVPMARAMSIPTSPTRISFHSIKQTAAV
Procedure, shortened: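 Steps: thaw and wash cells; suspend in 1×HBSS, 20 mM HEPES, 0 or 0.1% HSA, 2 mM IBMX; add compound, 30 min RT; lyse with HTRF reagents, 1 h; read 665/620 nm. EC50 calculated, E% versus 1000 nM UCN2.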

CRF1R receptor = molecular target: T2, CRF1R receptor (Homo sapiens, UniProt P34998); assay: cAMP activity at anti-target CRF1R, CRF1R-overexpression CHO cell line (Example 9); type: cell-based; conditions: CRF1R-overexpression CHO cell line; for EC50: 0% HSA; for Emax: read-out: Emax (%)
T2 construct: host or cells: CHO-K1 clone 2
T2 sequence (P34998 24-415): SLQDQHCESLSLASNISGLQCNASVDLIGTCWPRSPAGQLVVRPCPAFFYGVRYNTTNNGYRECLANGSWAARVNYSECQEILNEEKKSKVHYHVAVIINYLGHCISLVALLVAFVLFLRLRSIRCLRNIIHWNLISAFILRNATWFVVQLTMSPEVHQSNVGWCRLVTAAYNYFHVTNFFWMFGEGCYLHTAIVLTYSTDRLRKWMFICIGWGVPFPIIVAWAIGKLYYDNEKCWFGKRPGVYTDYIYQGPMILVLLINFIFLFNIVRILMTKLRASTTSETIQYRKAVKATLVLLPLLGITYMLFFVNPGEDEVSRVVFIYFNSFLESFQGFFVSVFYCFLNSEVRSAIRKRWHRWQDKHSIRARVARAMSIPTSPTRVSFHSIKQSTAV
Procedure, shortened: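 Using thawed CRF1R-overexpressing CHO cells at 2000 per well, compound is applied for 30 min at RT in HBSS/HEPES buffer with IBMX. Cellular cAMP content is determined via HTRF, and percent activity is calculated against 1000 nM UCN2 defined as 100%.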

[1] = Chemical stability, purity loss by UPLC-UV after 28 days at 40° C. vs 5° C., pH 4.5 acetate buffer (Example 12); type: physicochemical; conditions: 28 days 40° C. vs 5° C.; pH 4.5, 20 mM acetate buffer; 300 μM
Procedure, shortened: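 300 μM compound (purity-corrected) in 20 mM acetate buffer, pH 4.5, stored 28 days at 5 and 40° C. Purity by UPLC-UV as compound peak area over total peak area. Value is the purity difference between 5° C. and 40° C. samples, relative to the 5° C. purity, in percent.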

[2] = 0% HSA, read-out: EC50 [nM], 0% HSA
[3] = 0.1% HSA, read-out: EC50 [nM], 0.1% HSA

SMILES | EC50 (human CRF2α receptor; [2]) [nM] | EC50 (human CRF2α receptor; [3]) [nM] | EC50 (CRF1R receptor) [nM] | Emax (CRF1R receptor) [%] | Relative purity loss [%] [1] [%]
CC[C@H](C)[C@H](N)C(=O)N[C@H](C(=O)N[C@@H](CC(C)C)C(=O)N[C@@H](CO)C(=O)N[C@@H](CC(C)C)C(=O)N[C@@H](CC(=O)O)C(=O)N[C@@H](C(=O)N1CCC[C@H]1C(=O)N[C@H](C(=O)N[C@@H](CCCCN)C(=O)N[C@@H](CC(C)C)C(=O)N[C@@H](CCCCNC(=O)COCCOCCNC(=O)COCCOCCNC(=O)CC[C@H](NC(=O)CCCCCCCCCCCCCCCCC(=O)O)C(=O)O)C(=O)N[C@@H](CCC(N)=O)C(=O)N[C@H](C(=O)N[C@@H](CC(C)C)C(=O)N[C@@H](CC(C)C)C(=O)N[C@@H](CCCCN)C(=O)N[C@@H](CCC(N)=O)C(=O)N[C@@H](CCC(=O)O)C(=O)N[C@@H](CCCNC(=N)N)C(=O)N[C@@H](CCC(N)=O)C(=O)N[C@@H](CCCCN)C(=O)N[C@@H](CCCCN)C(=O)N[C@@H](CCC(N)=O)C(=O)N[C@@H](CCCNC(=N)N)C(=O)N[C@@H](CCC(=O)O)C(=O)N[C@@H](CCC(N)=O)C(=O)N[C@@H](C)C(=O)N[C@@H](CCC(=O)O)C(=O)N[C@@H](CCCCN)C(=O)N[C@@H](CC(N)=O)C(=O)N[C@@H](CCCCN)C(=O)N[C@@H](CCC(N)=O)C(=O)N[C@H](C(=O)N[C@@H](CC(C)C)C(=O)N[C@@H](CCC(=O)O)C(=O)N[C@@H](CCC(N)=O)C(=O)N[C@H](C(N)=O)C(C)C)[C@@H](C)CC)[C@@H](C)CC)[C@@H](C)CC)C(C)C)C(C)C [compound 137] (H-IVLSLD[dV]PIKLK([AEEA-AEEA-γGlu-C18 diacid])QILLKQERQKKQREQAEKNKQILEQV-NH2; N-terminus assumed) | 0.04 | 1.78 | > 1000 | 22.5 | 4.80
CC[C@H](C)[C@H](N)C(=O)N[C@H](C(=O)N[C@@H](CC(C)C)C(=O)N[C@@H](CO)C(=O)N[C@@H](CC(C)C)C(=O)N[C@@H](CC(=O)O)C(=O)N[C@@H](C(=O)N1CCC[C@H]1C(=O)N[C@H](C(=O)N[C@@H](CCCCN)C(=O)N[C@@H](CC(C)C)C(=O)N[C@@H](CCCCNC(=O)COCCOCCNC(=O)COCCOCCNC(=O)CC[C@H](NC(=O)CCCCCCCCCCCCCCCCC(=O)O)C(=O)O)C(=O)N[C@@H](CCC(N)=O)C(=O)N[C@H](C(=O)N[C@@H](CC(C)C)C(=O)N[C@@H](CC(C)C)C(=O)N[C@@H](CCCCN)C(=O)N[C@@H](CCC(N)=O)C(=O)N[C@@H](CCC(=O)O)C(=O)N[C@@H](CCCNC(=N)N)C(=O)N[C@@H](CCC(N)=O)C(=O)N[C@@H](CCCCN)C(=O)N[C@@H](CCCCN)C(=O)N[C@@H](CCC(N)=O)C(=O)N[C@@H](CCCNC(=N)N)C(=O)N[C@@H](CCC(N)=O)C(=O)N[C@@H](CCC(N)=O)C(=O)N[C@@H](C)C(=O)N[C@@H](CCC(=O)O)C(=O)N[C@@H](CCCCN)C(=O)N[C@@H](CC(N)=O)C(=O)N[C@@H](CCCCN)C(=O)N[C@@H](CCC(N)=O)C(=O)N[C@H](C(=O)N[C@@H](CC(C)C)C(=O)N[C@@H](C)C(=O)N[C@@H](CCC(N)=O)C(=O)N[C@H](C(N)=O)C(C)C)[C@@H](C)CC)[C@@H](C)CC)[C@@H](C)CC)C(C)C)C(C)C [compound 139] (H-IVLSLD[dV]PIKLK([AEEA-AEEA-γGlu-C18 diacid])QILLKQERQKKQRQQAEKNKQILAQV-NH2; N-terminus assumed) | 0.03 | 1.31 | > 1000 | 37.6 | 3.05

Source: US12679878B2, “CRF2 receptor agonists and their use in therapy” (SANOFI, priority 2020, dated 2026)
